IC50 data for nine molecules are collected here from patent publication US10711006B2, “Selective Bruton's tyrosine kinase inhibitor and use thereof” (HANGZHOU HERTZ PHARMACEUTICAL CO., LTD., priority 2016, dated 2020).

The target in assay [1] is BTK Kinase (Homo sapiens (Human), UniProt Q06187). Nature of the assay: In-vitro Btk kinase inhibitory activity assay. Format: biochemical. As to the method: In-Vitro Btk Kinase Inhibitory Activity Assay for Compounds of the Present Invention:
10 μL of the 50× drug stock solution was added to a 96-well plate and then 90 μL of a 1× Kinase Buffer was added and the 96-well plate was shaken for 10 minutes on a shaker. From each well of the 96-well plate, 5 μL of the drug solution was taken and then transferred to a 384-well plate which was provided with 2 duplicate wells.
Preparation of a 2.5× Kinase Buffer: an enzyme was added to the 1× kinase base buffer.
Prepare a 2.5× oligopeptide solution: FAM-labeled oligopeptide and ATP were added to the 1× kinase base buffer.
10 μL of the 2.5× Kinase Buffer was added to the 384-well plate loaded with 5 μL of the drug solution and incubation was then carried out for 10 minutes at room temperature. 10 μL of the 2.5× oligopeptide solution was added to the 384-well plate and incubation was then carried out for 1 hour at 28° C. The reaction was stopped by adding 25 μL of a stop buffer. The readings were recorded and the inhibition rate of the compound on the enzyme was calculated. The IC50 of BTK kinase was calculated by fitting.

For assay [2], the target named is hERG potassium channel (Homo sapiens (Human), UniProt Q12809). Nature of the assay: hERG potassium channel inhibitory activity, manual patch clamp in CHO cells. The settings on record: CHO cells stably expressing hERG, whole-cell patch clamp. The assay is classed as cell-based. The procedure: The cells used in this experiment were CHO cell lines transfected with HergCdna and stably expressing Herg channels (supplied by Sophion Bioscience, Denmark). The cells were cultured in a medium containing the following components (all from Invitrogen): Ham's F12 medium, 10% (v/v) inactivated fetal bovine serum, 100 μg/ml hygromycin B, 100 μg/ml Geneticin. […] 24 to 48 hours before an electrophysiological experiment, CHO Herg cells were transferred to circular slides placed in the culture dishes and grow with the same culture liquid under the same culture conditions as above. The density of CHO Herg cells on each circular slide was required to reach such a value that most cells were independent and stand alone.
2. Treatment and Dilution of a Compound
Before the test, the compound was first diluted with DMSO at gradient to make stock solutions with concentrations of 10, 3, 1, 0.3 and 0.1 Mm and the stock solutions were then diluted with extracellular fluid to a final Mm test concentration. Except that the DMSO concentration in the 30 Mm compound test solution was 0.3%, the final concentration of DMSO in each of the compound solutions with other concentrations was 0.1%. The test concentration of a positive control Cisapridewas 0.1 Mm. All compound solutions were conventionally sonicated and shaken for 5 to 10 minutes to ensure complete dissolution of the compound.
3. Electrophysiological Recording System and Data Analysis
This experiment uses a manual patch clamp system (HEKA EPC-10 signal amplifier and digital conversion system, purchased from HEKA Electronics, Germany) for the recording of whole cell currents. The circular slides with CHO Herg cells growing on the surfaces were placed in an electrophysiological recording slot under an inverted microscope. The extracellular fluid was used for continuous perfusion in the recording slot (approximately lml per minute). The experimental procedure uses a conventional whole-cell patch clamp current recording technique. Unless otherwise stated, the experiment was carried out at regular room temperature ([…]). The cells were clamped at a voltage of −80 Mv. The cell clamp voltage was depolarized to +20 Mv to activate the Herg potassium channel, and 5 seconds later, it was clamped to −50 Mv to eliminate inactivation and generate tail current. The peak of the tail current was used as the value of the Herg current. After the hERG potassium current recorded in the above step was stabilized under the continuous extracellular fluid perfusion in the recording slot, the drug to be tested can be superimposed to the perfusion until the inhibitory effect of the drug on the hERG current reaches a steady state. Generally, the criterion for determine whether or not the stable state was reached was that the recent three consecutive current recording lines were coincident. After the steady state was reached, extracellular fluid perfusion was carried out for flushing until the hERG current returns to the magnitude before the drug was added. One cell may be used for testing one or more drugs, or multiple concentrations of the same drug, and flushing with extracellular fluid was carried out between tests of different drugs. Cisapride (purchased from Sigma) was used in the experiment as a positive control to ensure that the cells used were of normal quality. The test data was analyzed by data analysis software provided by HEKA Patchmaster, Microsoft Excel and Graphpad Prism.

The subject of assay [3] is human lung cancer cell (A549). Put plainly: In-vitro tumor cell proliferation inhibition (CCK-8), A549. The settings on record: A549, 72 h, read-out: Tumor cell proliferation inhibitory activity (IC50, μM) A549.
Protocol: (§1) The in-vitro antitumor activity assay was carried out on the synthesized compound by using different solid tumors and leukemia cell lines:
(§2) Cell lines: human lung cancer cell (A549), human mantle cell lymphoma (MINO), diffuse giant B-cell lymphoma (OCI-LY10), and human diffuse large B lymphoma (TMD-8).
(§3) Preparation method of the drug: the drug was dissolved in DMSO to make a 10 mM stock solution, and then the stock solution was diluted in a certain ratio to obtain 5 different concentrations (test concentration 100×). In-vitro culture of tumor cells:
(§4) The tumor cells A549, MINO, OCI-LY10, and TMD-8 were seeded in a 96-well plate at 4000 cells/200 μL/well and then incubated overnight at 37° C. in a 5% CO2 cell culture incubator. 2 μL of the compound was added to each well to final concentrations of 50 μM, 10 μM, 2 μM, 0.4 μM, and 0.08 μM and then incubated for 72 hours at 37° C. in a 5% CO2 cell incubator, with DMSO (2%) as a control group. […] Wells loaded with the corresponding amount of cell culture fluid the and CCK-8 solution but no cells were considered as blank controls. The absorbance (OD value) was measured at 450 nm using a microplate reader, and the obtained data was used to calculate IC50.
Assay [4] has as its system human mantle cell lymphoma (MINO). Nature of the assay: In-vitro tumor cell proliferation inhibition (CCK-8), MINO. The following applies: 72 h, read-out: Tumor cell proliferation inhibitory activity (IC50, μM) MINO.
Protocol: as §1, §2, §3, §4
Assay [5] relates to human diffuse large B lymphoma (TMD-8). Nature of the assay: In-vitro tumor cell proliferation inhibition (CCK-8), TMD-8. The following applies: TMD8, 72 h, read-out: Tumor cell proliferation inhibitory activity (IC50, nM) TMD-8.
Protocol: as §1, §2, §3, §4
Assay [6] relates to diffuse giant B-cell lymphoma (OCI-LY10). Put plainly: In-vitro tumor cell proliferation inhibition (CCK-8), OCI-LY10. The following applies: Homo sapiens, OCI-Ly10, 72 h, read-out: Tumor cell proliferation inhibitory activity (IC50, nM) OCI-LY10.
Protocol: as §1, §2, §3, §4

Chain of hERG potassium channel (Q12809 whole entry): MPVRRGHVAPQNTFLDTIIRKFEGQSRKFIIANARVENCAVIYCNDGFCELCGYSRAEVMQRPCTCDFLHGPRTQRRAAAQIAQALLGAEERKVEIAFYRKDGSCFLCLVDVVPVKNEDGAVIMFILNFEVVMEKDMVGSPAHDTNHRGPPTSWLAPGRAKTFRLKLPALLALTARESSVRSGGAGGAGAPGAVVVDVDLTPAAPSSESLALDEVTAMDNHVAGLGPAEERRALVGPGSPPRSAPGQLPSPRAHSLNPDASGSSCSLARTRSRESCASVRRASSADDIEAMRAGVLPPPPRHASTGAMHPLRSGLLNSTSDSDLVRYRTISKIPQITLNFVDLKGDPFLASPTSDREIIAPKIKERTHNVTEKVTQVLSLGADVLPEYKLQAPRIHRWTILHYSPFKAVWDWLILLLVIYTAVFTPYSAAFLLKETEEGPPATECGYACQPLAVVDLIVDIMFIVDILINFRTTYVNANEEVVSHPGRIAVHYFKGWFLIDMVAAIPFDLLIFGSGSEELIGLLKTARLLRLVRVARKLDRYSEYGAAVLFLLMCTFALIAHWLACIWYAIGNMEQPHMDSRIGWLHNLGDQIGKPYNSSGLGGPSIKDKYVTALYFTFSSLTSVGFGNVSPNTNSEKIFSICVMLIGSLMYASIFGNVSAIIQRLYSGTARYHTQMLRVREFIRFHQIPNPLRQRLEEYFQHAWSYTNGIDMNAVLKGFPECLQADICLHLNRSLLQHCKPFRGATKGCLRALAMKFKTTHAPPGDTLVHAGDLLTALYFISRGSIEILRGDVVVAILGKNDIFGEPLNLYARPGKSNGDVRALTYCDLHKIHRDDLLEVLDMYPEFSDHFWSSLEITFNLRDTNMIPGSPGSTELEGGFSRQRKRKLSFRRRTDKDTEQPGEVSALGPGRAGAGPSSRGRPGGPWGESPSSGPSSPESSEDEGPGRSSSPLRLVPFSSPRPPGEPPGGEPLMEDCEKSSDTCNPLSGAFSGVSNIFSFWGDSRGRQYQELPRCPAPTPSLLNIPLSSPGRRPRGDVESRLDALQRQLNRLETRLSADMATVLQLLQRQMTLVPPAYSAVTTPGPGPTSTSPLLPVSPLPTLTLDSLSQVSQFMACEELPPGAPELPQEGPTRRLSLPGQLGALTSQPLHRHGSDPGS
Chain of BTK Kinase (Q06187 whole entry): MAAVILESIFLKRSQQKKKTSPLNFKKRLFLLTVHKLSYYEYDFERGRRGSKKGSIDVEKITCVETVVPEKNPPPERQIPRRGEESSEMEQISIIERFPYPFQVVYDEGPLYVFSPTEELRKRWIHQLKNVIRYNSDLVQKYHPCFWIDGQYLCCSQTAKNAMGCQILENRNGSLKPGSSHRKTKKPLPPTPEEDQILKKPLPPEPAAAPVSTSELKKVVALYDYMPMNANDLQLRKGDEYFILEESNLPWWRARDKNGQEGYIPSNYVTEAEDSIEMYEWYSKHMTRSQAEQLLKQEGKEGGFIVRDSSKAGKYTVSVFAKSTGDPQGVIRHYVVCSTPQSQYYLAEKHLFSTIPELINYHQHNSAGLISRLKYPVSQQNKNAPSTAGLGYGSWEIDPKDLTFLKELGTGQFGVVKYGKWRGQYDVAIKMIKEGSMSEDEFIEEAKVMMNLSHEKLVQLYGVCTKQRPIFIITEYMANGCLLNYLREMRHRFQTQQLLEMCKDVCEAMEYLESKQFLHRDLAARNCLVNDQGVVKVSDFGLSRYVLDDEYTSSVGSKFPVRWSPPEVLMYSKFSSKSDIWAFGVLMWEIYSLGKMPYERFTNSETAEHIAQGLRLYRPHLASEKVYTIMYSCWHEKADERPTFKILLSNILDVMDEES

For the molecule `C=CC(=O)N1CC[C@@H](n2nc(-c3ccc(Oc4ccccc4)nc3)c3c(N)ncnc32)C1` [Compound 23a, (R)-1-(3-(4-amino-3-(6-phenoxypyridin-3-yl)-1H-pyrazolo[3,4-d]pyrimidin-1-yl)pyrrolidin-1-yl)prop-2-en-1-one], the IC50 in assay [1] was found to be 4.4 nM; in assay [2] it was 18200 nM; in assay [3] it was 2.83 µM; in assay [4] it was 9.19 µM; in assay [5], 28.3 nM; in assay [6], 6.91 nM.
For `C=CC(=O)N1CCC[C@@H](n2nc(-c3ccc(Oc4ccc(C)cc4)nc3)c3c(N)ncnc32)C1` [Compound 15i], the IC50 in assay [1] was 6.5 nM; in assay [2] it was 13500 nM; in assay [3], 8.21 µM; in assay [4], 8.35 µM; in assay [5], 4.99 nM; in assay [6] it was 3.19 nM.
For `C=CC(=O)N1CCC[C@@H](n2nc(-c3ccc(Oc4cccc(F)c4F)nc3F)c3c(N)ncnc32)C1` [Compound 17i, (R)-1-(3-(4-amino-3-(6-(2,3-difluorophenoxy)-2-fluoropyridin-3-yl)-1H-pyrazolo[3,4-d]pyrimidin-1-yl)piperidin-1-yl)prop-2-en-1-one], the IC50 is 1.2 nM in assay [1]; 1.02 µM in assay [3]; 7.65 µM in assay [4]; 3.8 nM in assay [5]; 2.04 nM in assay [6].
As for `C=CC(=O)N1CCC[C@@H](n2nc(-c3ccc(Oc4ccccc4F)nc3)c3c(N)ncnc32)C1` [Compound 15d, (R)-1-(3-(4-amino-3-(6-(2-fluorophenoxypyridine)-3-yl)-1H-pyrazolo[3,4-d]pyrimidin-1-yl)piperidin-1-yl)prop-2-en-1-one], the IC50 in assay [1] was determined as 7.5 nM; in assay [3], 5.12 µM; in assay [4], 9.15 µM; in assay [5], 3.83 nM; in assay [6] it was 5.12 nM.
Consider `C=CC(=O)N1CCC[C@@H](n2nc(-c3ccc(Oc4ccc(F)cc4)nc3)c3c(N)ncnc32)C1` [Compound 15b, (R)-1-(3-(4-amino-3-(6-(4-fluorophenoxypyridine)-3-yl)-1H-pyrazolo[3,4-d]pyrimidin-1-yl)piperidin-1-yl)prop-2-en-1-one], for which the IC50 was 9.5 nM in assay [1]; 11600 nM in assay [2]; 2.88 µM in assay [3]; 8.19 µM in assay [4]; 2.37 nM in assay [5]; 3.58 nM in assay [6].
For `C=CC(=O)N1CCC[C@@H](n2nc(-c3cnc(Oc4ccccc4)nc3)c3c(N)ncnc32)C1` [Compound 18, (R)-1-(3-(4-amino-3-(2-phenoxypyrimidin-5-yl)-1H-pyrazolo[3,4-d]pyrimidin-1-yl)piperidin-1-yl)prop-2-en-1-one], the IC50 was determined as 10.3 nM in assay [1]; 19.5 µM in assay [3]; 20.3 µM in assay [4]; 8.14 nM in assay [5]; 32.1 nM in assay [6].
`C=CC(=O)N1CCC[C@@H](n2nc(-c3ccc(Oc4ccccc4)cn3)c3c(N)ncnc32)C1` [Compound 19, (R)-1-(3-(4-amino-3-(5-phenoxypyridin-2-yl)-1H-pyrazolo[3,4-d]pyrimidin-1-yl)piperidin-1-yl)prop-2-en-1-one]: the IC50 in assay [1] is 5.3 nM; in assay [2] it was 10600 nM; in assay [3], 4.52 µM; in assay [4], 7.12 µM; in assay [5], 10.2 nM; in assay [6], 13.6 nM.
Consider `CC#CC(=O)N1CC[C@@H](n2nc(-c3ccc(Oc4ccccc4)nc3)c3c(N)ncnc32)C1` [Compound 25a, (R)-1-(3-(4-amino-3-(6-phenoxypyridin-3-yl)-1H-pyrazolo[3,4-d]pyrimidin-1-yl)pyrrolidin-1-yl)but-2-yn-1-one], for which the IC50 stood at 25.1 nM in assay [1]; 13600 nM in assay [2]; 5.3 µM in assay [3]; 6.5 µM in assay [4]; 5.18 nM in assay [5]; 5.13 nM in assay [6].
Turning to `CC/C=C/C(=O)N1CCC[C@@H](n2nc(-c3ccc(Oc4ccccc4)nc3)c3c(N)ncnc32)C1` [Compound 20a, (R)-1-(3-(4-amino-3-(6-phenoxypyridin-3-yl)-1H-pyrazolo[3,4-d]pyrimidin-1-yl)piperidin-1-yl) pent-2-en-1-one], the IC50 worked out at 18.6 nM in assay [1]; 14800 nM in assay [2]; 7.7 µM in assay [3]; 8.92 µM in assay [4]; 15.2 nM in assay [5]; 12.5 nM in assay [6].
